Test results: patent publication US10336697B2, “Spiro[cyclobutane-1,3′-indolin]-2′-one derivatives as bromodomain inhibitors” (Orion Corporation, priority 2015, dated 2019)
Where a name gives a salt, the structure may show the parent alone.

Molecular target: Bet BRD4 full length bromo-domain protein (Homo sapiens, UniProt O60885)
Test: Bet bromodomain TR-FRET assay (displacement of acetyl histone peptide)
Type: binding
Settings: Bet BRD4 full length bromodomain protein, 300 nM acetyl histone peptide substrate, read-out: IC50

Question: Which IC50 does the source give for O=C1CC(c2cc(NS(=O)(=O)c3ccc(F)cc3F)cc3c2NC(=O)C32CCC2)CCN1 (stereo not shown) [Compound 104, 2,4-Difluoro-N-(2′-oxo-7′-(2-oxopiperidin-4-yl)spiro[cyclobutane-1,3′-indolin]-5′-yl)benzenesulfonamide] here?
Answer: The IC50 was under 0.6 µM.

Question: O=C1Nc2c(NC3CCNCC3)cc(NS(=O)(=O)c3ccc(F)cc3F)cc2C12CCC2 [Compound 79a, 2,4-Difluoro-N-(2′-oxo-7′-(piperidin-4-ylamino)spiro [cyclobutane-1,3′-indolin]-5′-yl)benzenesulfonamide] was tested. Which IC50 did it give?
Answer: The IC50 was under 0.6 µM.

Question: Which IC50 does the source give for O=C1CCC(Oc2cc(NS(=O)(=O)c3ccc(Cl)cc3F)cc3c2NC(=O)C32CCC2)CC1 [Compound 176, 4-chloro-2-fluoro-N-(2′-oxo-7′-((4-oxocyclohexyl)oxy)spiro[cyclobutane-1,3′-indolin]-5′-yl)benzenesulfonamide] here?
Answer: The IC50 was under 0.6 µM.

Question: For O=C1Nc2c(NC3CN4CCC3CC4)cc(NS(=O)(=O)c3ccc(F)cc3F)cc2C12CCC2 (stereo not shown) [Compound 19, 2,4-Difluoro-N-(2′-oxo-7′-(quinuclidin-3-ylamino)spiro[cyclobutane-1,3′-indolin]-5′-yl)benzenesulfonamide], which IC50 is on record?
Answer: Its IC50 is under 0.6 µM.

Question: With O=C1Nc2c(NC3CCNCC3F)cc(NS(=O)(=O)c3ccc(F)cc3F)cc2C12CCC2 (stereo not shown) [Compound 102, 2,4-Difluoro-N-(7′-((3-fluoropiperidin-4-yl)amino)-2′-oxospiro[cyclobutane-1,3′-indolin]-5′-yl)benzenesulfonamide] as the molecule, how does the IC50 read?
Answer: Its IC50 is 0.6 to 1 µM.

Question: For O=C1Nc2c(-c3cccc(O)c3)cc(NS(=O)(=O)c3ccc(F)cc3F)cc2C12CCC2 [Compound 1, 2,4-difluoro-N-(7′-(3-hydroxyphenyl)-2′-oxospiro[cyclobutane-1,3′-indolin]-5′-yl)benzenesulfonamide], which IC50 is on record?
Answer: Its IC50 is under 0.6 µM.

Question: For CN1CCC(NC(=O)c2cc(NS(=O)(=O)c3ccc(C#N)cc3F)cc3c2NC(=O)C32CCC2)CC1 [Compound 81, 5′-((4—Cyano-2-fluorophenyl)sulfonamido)-N-(1-methylpiperidin-4-yl)-2′-oxospiro[cyclobutane-1,3′-indoline]-7′-carboxamide], which IC50 is on record?
Answer: Its IC50 is over 1 µM.

Question: How did the IC50 turn out when O=C(NC1CCCCC1)c1cc(NS(=O)(=O)c2ccc(F)cc2F)cc2c1NC(=O)C21CCC1 [Compound 55, N-cyclohexyl-5′-(2,4-difluorophenylsulfonamido)-2′-oxospiro[cyclobutane-1,3′-indoline]-7′-carboxamide] was run?
Answer: The IC50 was 0.6 to 1 µM.

Question: For O=C(Nc1cc(C2CC2)c2c(c1)C1(CCC1)C(=O)N2)c1cccnc1N1CCOCC1 [Compound-223, N-(7′-cyclopropyl-2′oxospiro[cyclobutane-1,3′-indolin]-5′-yl)-2-morpholinonicotinamide], which IC50 is on record?
Answer: Its IC50 is over 1 µM.

Question: Which IC50 does the source give for COc1ccccc1S(=O)(=O)Nc1cc(NC2CCCN(C)C2)c2c(c1)C1(CCC1)C(=O)N2 (stereo not shown) [Compound 38, 2-Methoxy-N-(7′-((1-methylpiperidin-3-yl)amino)-2′-oxospiro[cyclobutane-1,3′-indolin]-5′-yl)benzenesulfonamide] here?
Answer: The IC50 was under 0.6 µM.

Question: With CN1CCC(Oc2cc(N(C)S(=O)(=O)c3ccc(F)cc3F)cc3c2NC(=O)C32CCC2)CC1 [compound 180, 2,4-Difluoro-N-methyl-N-(7′-((1-methylpiperidin-4-yl)oxy)-2′-oxospiro[cyclobutane-1,3′-indolin]-5′-yl)benzenesulfonamide] as the molecule, how does the IC50 read?
Answer: The IC50 was under 0.6 µM.

Question: C=CCCNc1cc(NS(=O)(=O)c2ccccc2OC)cc2c1NC(=O)C21CCC1 [Compound 14, N-(7′-(but-3-en-1-ylamino)-2′-oxospiro[cyclobutane-1,3′-indolin]-5′-yl)-2-methoxybenzenesulfonamide] was tested. Which IC50 did it give?
Answer: Its IC50 is under 0.6 µM.

Question: How did the IC50 turn out when O=C(c1cc(NS(=O)(=O)c2ccc(F)cc2N2CCOCC2)cc2c1NC(=O)C21CCC1)N1CCOCC1 [Compound 61, 4-Fluoro-N-(7′-(morpholine-4-carbonyl)-2′-oxospiro[cyclobutane-1,3′-indolin]-5′-yl)-2-morpholinobenzenesulfonamide] was run?
Answer: The IC50 was over 1 µM.

Question: How did the IC50 turn out when O=C1Nc2c(NC3CCCNC3)cc(NS(=O)(=O)c3ccc(F)cc3F)cc2C12CCC2 (stereo not shown) [Compound 71, 2,4-Difluoro-N-(2′-oxo-7′-(piperidin-3-ylamino)spiro[cyclobutane-1,3′-indolin]-5′-yl)benzenesulfonamide hydrochloride] was run?
Answer: Its IC50 is under 0.6 µM.

Question: For CN1CCC(NC(=O)c2cc(NS(=O)(=O)c3ccc(Br)cc3F)cc3c2NC(=O)C32CCC2)CC1 [Compound 74, 5′-((4-Bromo-2-fluorophenyl)sulfonamido)-N-(1-methylpiperidin-4-yl)-2′-oxospiro[cyclobutane-1,3′-indoline]-7′-carboxamide], which IC50 is on record?
Answer: Its IC50 is under 0.6 µM.

Question: With COc1ccccc1S(=O)(=O)Nc1cc(Oc2ccc(N)nc2)c2c(c1)C1(CCC1)C(=O)N2 [Compound 145, N-(7′-((6-aminopyridin-3-yl)oxy)-2′-oxospiro[cyclobutane-1,3′-indolin]-5′-yl)-2-methoxybenzenesulfonamide] as the molecule, how does the IC50 read?
Answer: The IC50 was under 0.6 µM.

Question: Which IC50 does the source give for C=C(c1ccccc1)c1cc(NS(=O)(=O)c2ccccc2OC)cc2c1NC(=O)C21CCC1 [Compound 11, 2-Methoxy-N-(2′-oxo-7′-(1-phenylvinyl)spiro[cyclobutane-1,3′-indolin]-5′-yl)benzenesulfonamide] here?
Answer: The IC50 was under 0.6 µM.

Question: CN1CCC(NC(=O)c2cc(NC(=O)c3ccc(F)cc3F)cc3c2NC(=O)C32CCC2)CC1 [Compound 75, 5′-(2,4-Difluorobenzamido)-N-(1-methylpiperidin-4-yl)-2′-oxospiro[cyclobutane-1,3′-indoline]-7′-carboxamide] was tested. Which IC50 did it give?
Answer: Its IC50 is over 1 µM.

Question: How did the IC50 turn out when COc1ccccc1S(=O)(=O)Nc1cc(OC(C)CN(C)C)c2c(c1)C1(CCC1)C(=O)N2 (stereo not shown) [Compound 166, N-(7′-((1-(dimethylamino)propan-2-yl)oxy)-2′-oxospiro[cyclobutane-1,3′-indolin]-5′-yl)-2-methoxybenzenesulfonamide] was run?
Answer: The IC50 was under 0.6 µM.

Question: With COc1ccccc1S(=O)(=O)Nc1cc(NC2CCN(C)CC2)c2c(c1)C1(CCC1)C(=O)N2 [Compound 39, 2-Methoxy-N-(7′-((1-methylpiperidin-4-yl)amino)-2′-oxospiro[cyclobutane-1,3′-indolin]-5′-yl)benzenesulfonamide] as the molecule, how does the IC50 read?
Answer: The IC50 was under 0.6 µM.

Question: COc1ccccc1S(=O)(=O)Nc1cc(Cc2cccc(F)c2)c2c(c1)C1(CCC1)C(=O)N2 [Compound 10, N-(7′-(3-fluorobenzyl)-2′-oxospiro[cyclobutane-1,3′-indolin]-5′-yl)-2-methoxybenzenesulfonamide] was tested. Which IC50 did it give?
Answer: Its IC50 is under 0.6 µM.

Question: For COc1ccc(S(=O)(=O)Nc2cc(Cc3cccc(F)c3)c3c(c2)C2(CCC2)C(=O)N3)c(F)c1 [Compound 95, 2-Fluoro-N-(7′-(3-fluorobenzyl)-2′-oxospiro[cyclobutane-1,3′-indolin]-5′-yl)-4-methoxybenzenesulfonamide], which IC50 is on record?
Answer: Its IC50 is under 0.6 µM.

Question: With COc1cc(Cl)ccc1S(=O)(=O)Nc1cc(OC2CCN(C)CC2)c2c(c1)C1(CCC1)C(=O)N2 [compound 188, 4-Chloro-2-methoxy-N-(7′-((1-methylpiperidin-4-yl)oxy)-2′-oxospiro[cyclobutane-1,3′-indolin]-5′-yl)benzenesulfonamide] as the molecule, how does the IC50 read?
Answer: The IC50 was under 0.6 µM.

Question: How did the IC50 turn out when COc1ccccc1S(=O)(=O)Nc1cc(OCC2COCCN2)c2c(c1)C1(CCC1)C(=O)N2 (stereo not shown) [Compound-203, 2-Methoxy-N-(7′-(morpholin-3-ylmethoxy)-2′-oxospiro[cyclobutane-1,3′-indolin]-5′-yl)benzenesulfonamide] was run?
Answer: The IC50 was under 0.6 µM.

Question: How did the IC50 turn out when COc1ccccc1S(=O)(=O)Nc1cc(OCc2cncc(F)c2)c2c(c1)C1(CCC1)C(=O)N2 [Compound 149, N-(7′-((5-fluoropyridin-3-yl)methoxy)-2′-oxospiro[cyclobutane-1,3′-indolin]-5′-yl)-2-methoxybenzenesulfonamide] was run?
Answer: The IC50 was under 0.6 µM.

Question: With O=C1NCCc2ccc(-c3cc(NS(=O)(=O)c4ccc(F)cc4F)cc4c3NC(=O)C43CCC3)cc21 [Compound 4, 2,4-Difluoro-N-(2′-oxo-7′-(1-oxo-1,2,3,4-tetrahydroisoquinolin-7-yl)spiro[cyclobutane-1,3′-indolin]-5′-yl)benzenesulfonamide] as the molecule, how does the IC50 read?
Answer: Its IC50 is under 0.6 µM.

Question: O=C(Nc1ccncc1)c1cc(NS(=O)(=O)c2ccc(F)cc2F)cc2c1NC(=O)C21CCC1 [Compound 57, 5′-(2,4-Difluorophenylsulfonamido)-2′-oxo-N-(pyridin-4-yl)spiro[cyclobutane-1,3′-indoline]-7′-carboxamide] was tested. Which IC50 did it give?
Answer: The IC50 was under 0.6 µM.

Question: COc1ccccc1S(=O)(=O)Nc1cc(OC2CCOCC2)c2c(c1)C1(CCC1)C(=O)N2 [Compound 141, 2-Methoxy-N-(2′-oxo-7′-((tetrahydro-2H-pyran-4-yl)oxy)spiro[cyclobutane-1,3′-indolin]-5′-yl)benzenesulfonamide] was tested. Which IC50 did it give?
Answer: Its IC50 is under 0.6 µM.

Question: Which IC50 does the source give for CS(=O)(=O)N1CCC(Oc2cc(NS(=O)(=O)c3ccc(Cl)cc3F)cc3c2NC(=O)C32CCC2)CC1 [Compound-210, 4-Chloro-2-fluoro-N-(7′-((1-(methylsulfonyl)piperidin-4-yl)-oxy)-2′-oxospiro[cyclobutane-1,3′-indolin]-5′-yl)benzenesulfonamide] here?
Answer: Its IC50 is under 0.6 µM.

Question: Which IC50 does the source give for Nc1cc(NS(=O)(=O)c2ccc(F)cc2F)cc2c1NC(=O)C21CCC1 [Compound 15, N-(7′-amino-2′-oxospiro[cyclobutane-1,3′-indolin]-5′-yl)-2,4-difluoro-benzenesulfonamide] here?
Answer: The IC50 was under 0.6 µM.

Question: COc1ccccc1S(=O)(=O)Nc1cc(OCC2CN(C)C2)c2c(c1)C1(CCC1)C(=O)N2 [Compound-190, 2-Methoxy-N-(7′-((1-methylazetidin-3-yl)methoxy)-2′-oxospiro [cyclobutane-1,3′-indolin]-5′-yl)benzenesulfonamide] was tested. Which IC50 did it give?
Answer: The IC50 was under 0.6 µM.

Question: Which IC50 does the source give for CN1CCC(C(=O)Nc2cc(NS(=O)(=O)c3ccc(F)cc3F)cc3c2NC(=O)C32CCC2)CC1 [Compound 43, N-(5′-((2,4-difluorophenyl)sulfonamido)-2′-oxospiro[cyclobutane-1,3′-indolin]-yl)-1-methylpiperidine-4-carboxamide] here?
Answer: Its IC50 is 0.6 to 1 µM.

Question: How did the IC50 turn out when CCN1CCCC(Nc2cc(NS(=O)(=O)c3ccc(F)cc3F)cc3c2NC(=O)C32CCC2)C1 (stereo not shown) [Compound 70, N-(7′-((1-ethylpiperidin-3-yl)amino)-2′-oxospiro[cyclobutane-1,3′-indolin]-5′-yl)-2,4-difluorobenzenesulfonamide] was run?
Answer: Its IC50 is under 0.6 µM.

Question: Which IC50 does the source give for COc1ccccc1S(=O)(=O)Nc1cc(OCCNC2CC2)c2c(c1)C1(CCC1)C(=O)N2 [compound 206, N-(7′-(2-(cyclopropylamino)ethoxy)-2′-oxospiro[cyclobutane-1,3′-indolin]-5′-yl)-2-methoxybenzenesulfonamide] here?
Answer: Its IC50 is under 0.6 µM.
